Experimental data from US20110112155A1, “METHODS FOR TREATING CANCER IN PATIENTS HAVING BREAST CANCER RESISTANCE PROTEIN OVEREXPRESSION” (Bristol-Myers Squibb Company, priority 2008, published 2011).
Where two headings read alike, the source gives them in different places.

Columns and labels:
[1] = system: H1155 lung tumor xenograft overexpressing TUBB3; assay: In vivo efficacy in TUBB3 overexpressing H1155 lung tumor xenograft; parameters: species or system human; conditions: H1155 xenograft in nude mice, at maximum tolerated dose; activity = LCK>=1
Description: (§1) Cancer cell lines overexpressing TUBB3 were evaluated in vivo in mice for sensitivity to ixabepilone, docetaxel and vinorelbine. These include DU4475 and PAT21 breast, as well as H1155 and LX-1 lung cancer lines. BCRP overexpressing HEK-293 cell line was studied in vitro for sensitivity to ixabepilone, paclitaxel and mitoxantrone.
(§2) In vivo efficacy of ixabepilone was evaluated in TUBB3 overexpressing human breast (DU4475 and PAT21) and lung (H1155 and LX-1) tumor xenograft models • Tumor response was determined by measurement of tumors by caliper twice a week • Tumor weights were estimated using the formula
(§3) Tumor weight=(length×width2)/2 • Tumor response endpoint was expressed in terms of log cell kill (LCK) expressed as
(§4) LCK=(T−C)÷(3.32×TVDT) • T−C, the difference in the time (days) required for the treated tumors (T) to reach a predetermined target size compared with those of the control group (C)
(§5) Tumor volume doubling time=TVDT: Median time (days) for control tumors to reach target size−Median time (days) for control tumors to reach half the target size • Activity was defined as achievement of LCK≧1 • MTD—the dose level immediately above which excessive toxicity (i.e., more then one death) occurred • Statistical evaluations were performed using Gehan's generalized Wilcoxon test

[2] = system: DU4475 breast tumor xenograft overexpressing TUBB3; assay: In vivo efficacy in TUBB3 overexpressing DU4475 breast tumor xenograft; parameters: species or system human; conditions: DU4475 xenograft in nude mice, at maximum tolerated dose; activity = LCK>=1
Description: as §1, §2, §3, §4, §5

[3] = system: Pat-21 breast tumor xenograft overexpressing TUBB3; assay: In vivo efficacy in TUBB3 overexpressing PAT21 breast tumor xenograft; parameters: species or system human; conditions: Pat-21 xenograft in nude mice, at maximum tolerated dose; activity = LCK>=1
Description: as §1, §2, §3, §4, §5

[4] = system: LX-1 lung tumor xenograft overexpressing TUBB3; assay: In vivo efficacy in TUBB3 overexpressing LX-1 lung tumor xenograft; parameters: species or system human; conditions: LX-1 xenograft in nude mice, at maximum tolerated dose; activity = LCK>=1
Description: as §1, §2, §3, §4, §5

[5] = system: 4 xenografts overexpressing TUBB3 (DU4475, PAT21, H1155, LX-1); assay: In vivo efficacy across the 4 human tumor xenografts overexpressing TUBB3; conditions: range across 4 TUBB3 overexpressing xenografts in nude mice, at MTD
Description: as §1, §2, §3, §4, §5

[6] = system: BCRP overexpressing HEK293/BCRP cell line; assay: Cell growth assay in BCRP overexpressing HEK293 cells; type: cell-based
Description: as §1
(§6) Compounds and reagents. Ixabepilone, docetaxel and mitoxantrone were solubilized in 100% DMSO at 10 mg/ml for in vitro studies.
(§7) Cell culture: HEK and HEK/BCRP cells were maintained in RPMI-1640 (Gibco) supplemented with 10% heat-inactivated fetal bovine serum and 25 mM HEPES at 37° C./5% CO2.
(§8) Cell growth assays. Cell growth assays were conducted in 6-well culture plates. Cells were plated at a density of 4×10^4 cells/well overnight. Compounds were then added (total DMSO content not exceeding 0.1%). Cell growth was determined by the direct counting of cell number, following trypsinization, using a Coulter Channelyzer.

[7] = system: BCRP; assay: as above; type: cell-based; conditions: human, HEK293 cells overexpressing BCRP (HEK293/BCRP); HEK293/BCRP cells, cell growth by cell counting
Description: as §1, §6, §7, §8

[8] = system: human lung carcinoma cell line, H441; assay: BCRP-overexpression dependent resistance in H441 cells; type: cell-based; conditions: FIG. 8
[9] = system: paclitaxel-sensitive (A2780, HCT116, LS174T) and paclitaxel-resistant (HCT116/VM46, Pat-7, A2780Tax, Pat-21) human tumor models; assay: Preclinical pharmacology studies of antitumor activity in human tumor models; type: in vivo
[10] = system: BCRP overexpressing cells; assay: Detection of BCRP overexpressing cells by Hoescht 33342 dye and flow cytometry; type: cell-based; conditions: flow cytometry, FIG. 7
Text: Determination of BCRP Expression by Flow Cytometry.
Cells were acquired using CellQuest Pro on a FACSCalibur (BD) and analyzed using FlowJo software.

[11] = HEK293/BCRP in comparison with the vector-transfected control line

Row | Structure (SMILES) | Antitumor Efficacy (LCK) [1] | Antitumor Efficacy (LCK) [2] | Antitumor Efficacy (LCK) [3] | Antitumor Efficacy (LCK) [4] | antitumor efficacy, range over the 4 xenografts [5] | IC50 [7] | resistance factor [6, 11] | also measured
1 | CC(=O)O[C@@]12CO[C@@H]1C[C@H](O)[C@@]1(C)C(=O)[C@H](O)C3=C(C)[C@@H](OC(=O)[C@H](O)[C@@H](NC(=O)OC(C)(C)C)c4ccccc4)C[C@@](O)([C@@H](OC(=O)c4ccccc4)[C@H]21)C3(C)C [Docetaxel, docetaxel] | 0.2 LCK | 0.9 LCK | 0.3 LCK | 0.5 LCK | 0.2-0.9 LCK |  |  | 
2 | C/C(=C\c1csc(C)n1)[C@@H]1C[C@@H]2O[C@]2(C)CCC[C@H](C)[C@H](O)[C@@H](C)C(=O)C(C)(C)[C@@H](O)CC(=O)N1 [Ixabepilone, (1S,3S,7S,10R,11S,12S,16R)-7,11-dihydroxy-8,8,10,12,16-pentamethyl-3-[(1E)-1-methyl-2-(2-methyl-4-thiazolyl)ethenyl]-17-oxa-4-azabicyclo[14.1.0]heptadecane-5,9-dione] | 4.2 LCK | 2.6 LCK | 1.6 LCK | 2.6 LCK |  | 4.1 nM |  | resistance factor [6]: 1.9 fold; ability to overcome BCRP-overexpression dependent resistance to taxanes [8]: increased ability; oral efficacy ([9]; oral administration, comparable to parenteral administration): orally efficacious; antitumor activity ([9]; paclitaxel-sensitive and paclitaxel-resistant human colon, ovarian and breast tumor models): very impressive and broad spectrum of antitumor activity
3 | CCC1=C[C@@H]2CN(C1)Cc1c([nH]c3ccccc13)[C@@](C(=O)OC)(c1cc3c(cc1OC)N(C)[C@H]1[C@@](O)(C(=O)OC)[C@H](OC(C)=O)[C@]4(CC)C=CCN5CC[C@]31[C@@H]54)C2 [Vinorelbine, vinorelbine] | 0.1 LCK | 0.2 LCK | 0.3 LCK | 0.1 LCK | 0.1-0.3 LCK |  |  | 
4 | COc1ccc2c3c([nH]c2c1)[C@H](C=C(C)C)N1C(=O)[C@@H]2CCCN2C(=O)[C@@H]1C3 [fumitremorgin C] |  |  |  |  |  |  |  | reversal of BCRP-mediated resistance to paclitaxel and mitoxantrone ([6]; HEK293/BCRP cells): reversed; effect on BCRP overexpressing cells detected with Hoescht 33342 dye [10]: abolition of BCRP overexpressing cells
5 | O=C1c2c(O)ccc(O)c2C(=O)c2c(NCCNCCO)ccc(NCCNCCO)c21 [mitoxantrone] |  |  |  |  |  | 26.4 nM | 4.1 fold | 
6 | CC(=O)O[C@H]1C(=O)[C@@]2(C)[C@H]([C@H](OC(=O)c3ccccc3)[C@]3(O)C[C@H](OC(=O)[C@H](O)[C@@H](NC(=O)c4ccccc4)c4ccccc4)C(C)=C1C3(C)C)[C@]1(OC(C)=O)CO[C@@H]1C[C@@H]2O [paclitaxel] |  |  |  |  |  | 8.7 nM | 9.8 fold | 
